The test system of assay [1] is “Momotaro” tomato. Briefly: Example 6 salt stress test (tomato), hydroponic culture. Format: in vivo. The following applies: 23° C., 100 ppm, 2 weeks; for Fresh weight, relative value (untreated plot = 100), Test 5 / Fresh weight, relative value (untreated plot = 100), Test 8 / Fresh weight, relative value (untreated plot = 100), Test 6 / Fresh weight, relative value (untreated plot = 100), Test 7: hydroponic culture; for Fresh weight, relative value (untreated plot = 100), Test 5: EC 2.7 mS/cm; for Fresh weight, relative value (untreated plot = 100), Test 5 / Fresh weight, relative value (untreated plot = 100), Test 6 / Fresh weight, relative value (untreated plot = 100), Test 7 / Fresh weight, relative value (untreated plot = 100), Comparison 2: two-leaf stage; for Fresh weight, relative value (untreated plot = 100), Test 8 / Fresh weight, relative value (untreated plot = 100), Test 6: EC 3.9 mS/cm; for Fresh weight, relative value (untreated plot = 100), Test 8: five-leaf stage; for Fresh weight, relative value (untreated plot = 100), Test 7: EC 4.8 mS/cm; for Fresh weight, relative value (untreated plot = 100), Comparison 2: stress-free: hydroponic culture, EC 1.3 mS/cm. The protocol: (a) Comparative example conditions (stress-free optimum growth conditions) Cultivation temperature: 23° C., EC: 1.3 mS/cm (Otsuka ½A formulation) (b) Example conditions (salt stress conditions) Cultivation temperature: 23° C., EC: 2.7, 3.9, 4.8 mS/cm (cultivation with Kureha gardening soil) (2) Illuminance: 5000 Lux (fluorescent light), light/dark cycle: 16 hours/8 hours (3) Employed soil: Kureha gardening soil manufactured by Kureha Corporation (fertilizer components: N:P:K=0.4:1.9:0.6 g/kg soil) (4) Employed solution culture medium: Otsuka ½A formulation: a mixed solution of Otsuka House No. 1 (N:P:K=10:8:27) 7.5 g/10 L and Otsuka House No. 2 (N:P:K:Ca=10:0:0:23) 5 g/10 L, total nitrogen: 130 ppm, phosphoric acid: 60 ppm, potassium: 203 ppm) (5) Cultivation period: 2 weeks (6) Plant preparation: A 50-cell tray was filled with Kureha gardening soil manufactured by Kureha Corporation (fertilizer components: N:P:K=0.4:1.9:0.6 g/kg soil), and seeds of a “Momotaro” tomato or tubers of a “Danshaku” potato were sowed, thinly covered with Kureha gardening soil, and sufficiently watered to allow the seeds or the tubers to sprout. When the leaves in the 2-leaf stage or the 5-leaf stage fully unfolded, the soil on the tomato roots or the potato roots was carefully washed away with running water, and a test was performed. (7) Test chemicals: POE (20) sorbitan monolauric acid ester: Reodol TW-L120 (Kao Corporation) POE (20) sorbitan monopalmitic acid ester: Reodol TW-P120 (Kao Corporation) POE (20) sorbitan monostearic acid ester: Reodol TW-S120 (Kao Corporation) POE (20) sorbitan monooleic acid ester: Reodol TW-O120 (Kao Corporation) Sorbitan monooleic acid ester: Emasol 0-10(F) (Kao Corporation) POE (6) sorbitan monooleic acid ester: Reodol TW-O106 (Kao Corporation) Alkyl (number of carbon atoms: 10) polyglucoside: AG-10LK (Kao Corporation) Alkyl (number of carbon atoms: 12 to 14) polyglucoside: AG-124 (Kao Corporation) Sucrose fatty acid ester (number of carbon atoms: C18, HLB: 5): S-570 (Mitsubishi-Kagaku Foods Corporation) Sucrose fatty acid ester (number of carbon atoms: C18, HLB: 9): S-970 (Mitsubishi-Kagaku Foods Corporation) Sucrose fatty acid ester (number of carbon atoms: C18, HLB: 11): S-1170 (Mitsubishi-Kagaku Foods Corporation) Sucrose fatty acid ester (number of carbon atoms: C18, HLB: 15): 5-1570 (Mitsubishi-Kagaku Foods Corporation) Sucrose fatty acid ester (number of carbon atoms: C16, HLB: 15): P-1570 (Mitsubishi-Kagaku Foods Corporation) Sucrose fatty acid ester (number of carbon atoms: C18:1, HLB: 15): O-1570 (Mitsubishi-Kagaku Foods Corporation) (8) Amount of treatment solution applied: 10 ml/specimen for leaf spraying, 250 ml/specimen for hydroponic culture (treatment of underground portion) (9) 50 ml/specimen for soil culture (treatment of underground portion)
The environmental conditions in a climatic chamber were controlled so as to have a temperature of 23° C., an illuminance by a fluorescent light of 5000 Lux, and a daily light-dark cycle of a 16-hour light period and an 8-hour dark period. Tomatoes as prepared above were planted in 250 ml polyethylene bottles each filled with a solution culture medium having a different EC value. Different EC values were achieved by taking a ½ Otsuka A formulation having an EC value of 1.3 as a standard and suitably increasing the fertilizer concentration through proportional counting. A treatment solution containing a compound of Table 1 in a specific concentration (the remainder was water) was prepared and sprayed onto the leaves or applied to the underground portion. In each test plot, 10 specimens were prepared for replication, and the average of the fresh weight of each specimen 2 weeks after the beginning of the test was calculated and expressed as a relative value where “100” indicates a result identical to that of the untreated plot of a given EC condition. […]

Assay [2] deals with “Momotaro” tomato. The experiment in a line: Standard test: standard extent of imparting plant salt stress tolerance. The note with it: 100 ppm sprayed onto leaves 10 ml/specimen, NaCl 3510 ppm in tap water, fresh weight after 2 weeks vs salt-stressed untreated control plot 1. Type of assay: in vivo. The protocol: Standard Test (I) Plant Preparation A 50-cell tray is filled with potting soil (fertilizer components: N:P:K=0.4:1.9:0.6 (g)/kg potting soil); and seeds of a “Momotaro” tomato (Takii Co., Ltd.) are sowed, thinly covered with potting soil, and sufficiently irrigated to allow the seeds to sprout. When the leaves in the 2-leaf stage are fully unfolded, the soil on the tomato roots is washed away with running water, and a test is performed. For the potting soil, Kureha gardening soil manufactured by Kureha Corporation may be used. (II) Test Condition Setting The environmental conditions are controlled such that the temperature is 23° C., the relative humidity is 50%, the illuminance is 5000 Lux, and the daily light-dark cycle includes a 16-hour light period and an 8-hour dark period. Such environmental conditions can be obtained by, for example, controlling the temperature in a room or a climate chamber where the temperature and the relative humidity can be controlled, and controlling illuminance by a fluorescent light or the like. […] (III) Treatment with Plant Stress Tolerance Imparting Composition […] A known surfactant or a like material that barely affects the plant may be used in the preparation of an aqueous dispersion. Test plot: An aqueous solution or an aqueous dispersion of a test compound (sugar derivative-type surfactant) (concentration: 100 ppm) is sprayed onto the leaves in an amount of 10 ml per tomato specimen. […] NaCl is added to a solution culture medium (creating a salt stress), but no test compound (plant stress tolerance imparting composition) is given to the tomato. Control plot 2: No NaCl is added to a solution culture medium (creating no salt stress), and no test compound (plant stress tolerance imparting composition) is given to the tomato. (IV) Calculation of Standard Extent of Imparting Plant Salt Stress Tolerance (%) […] The plant stress level (standard plant salt stress level) attained in the above-described standard test is about 130%. In this regard, the standard plant salt stress level can be calculated according to Formula (ii)′ below.

For the compound “POE (20) sorbitan monolauric acid ester [Product of present invention 12]”, in the assay on “Momotaro” tomato [1] (leaf), the “Fresh weight, relative value (untreated plot = 100), Test 5” value (from here on “Fresh weight, relative value … Test 5”) turned out to be 136; the “Fresh weight, relative value (untreated plot = 100), Test 8” value (shortened to “Fresh weight, relative value … Test 8”) was 147; the “Fresh weight, relative value (untreated plot = 100), Test 6” value (“Fresh weight, relative value … Test 6” below) is reported as 160; the “Fresh weight, relative value (untreated plot = 100), Test 7” value (from here on “Fresh weight, relative value … Test 7”) was determined as 135. In addition, the “Fresh weight, relative value (untreated plot = 100), Comparison 2” value (shortened to “Fresh weight, relative value … Comparison 2”) in the assay with “Momotaro” tomato [1] (leaf) is 101. Besides, the “Standard extent of imparting plant salt stress tolerance” value (from here on “Standard extent”) with “Momotaro” tomato [2] amounted to 116%.
With “Sucrose fatty acid ester (C18, HLB = 15) [Product of present invention 20]”, in the assay on “Momotaro” tomato [1] (leaf), the “Fresh weight, relative value … Test 5” value is given as 121; the “Fresh weight, relative value … Test 8” value turned out to be 133; the “Fresh weight, relative value … Test 6” value is on record as 138; the “Fresh weight, relative value … Test 7” value came out at 125. The “Fresh weight, relative value … Comparison 2” value with “Momotaro” tomato [1] (leaf) is 103. Besides, the “Standard extent” value in the assay on “Momotaro” tomato [2] was determined as 116%.
“Sorbitan monooleic acid ester [Product of present invention 11]”: the “Standard extent” value in the assay on “Momotaro” tomato [2] is given as 112%.
Still for that read-out and setting: the result for “POE (20) sorbitan monostearic acid ester [Product of present invention 14]” reads 114%.
In the case of `C[N+](C)(C)CC(=O)[O-]` [Comparative product 3, Glycine betaine, reference compound], in the assay with “Momotaro” tomato [1] (leaf), the “Fresh weight, relative value … Test 5” value is given as 103; the “Fresh weight, relative value … Test 8” value is recorded as 101; the “Fresh weight, relative value … Test 6” value is 103; the “Fresh weight, relative value … Test 7” value was 102. Also, in the assay with “Momotaro” tomato [1] (leaf), the “Fresh weight, relative value … Comparison 2” value came to 102. Also, in the assay with “Momotaro” tomato [2], the “Standard extent” value is recorded as 103%.
On to `OC[C@H]1O[C@H](OC[C@H]2O[C@H](O[C@]3(CO)O[C@H](CO)[C@@H](O)[C@@H]3O)[C@H](O)[C@@H](O)[C@@H]2O)[C@H](O)[C@@H](O)[C@H]1O` [Comparative product 4, Raffinose, reference compound], for which, in the assay on “Momotaro” tomato [1] (leaf), the “Fresh weight, relative value … Test 5” value is on record as 103; the “Fresh weight, relative value … Test 8” value was 102; the “Fresh weight, relative value … Test 6” value is recorded as 103; the “Fresh weight, relative value … Test 7” value was determined as 103. The “Fresh weight, relative value … Comparison 2” value in the assay on “Momotaro” tomato [1] (leaf) is 102. Further, the “Standard extent” value with “Momotaro” tomato [2] worked out at 102%.
With “POE (20) sorbitan monopalmitic acid ester [Product of present invention 13]”, the “Standard extent” value in the assay on “Momotaro” tomato [2] came to 116%.
Turning to “Alkyl (C10) polyglycoside [Product of present invention 15]”, in the assay with “Momotaro” tomato [1] (leaf), the “Fresh weight, relative value … Test 5” value amounted to 125; the “Fresh weight, relative value … Test 8” value turned out to be 138; the “Fresh weight, relative value … Test 6” value is reported as 145; the “Fresh weight, relative value … Test 7” value was found to be 125. The “Fresh weight, relative value … Comparison 2” value in the assay on “Momotaro” tomato [1] (leaf) is listed as 101. For the same compound, in the assay on “Momotaro” tomato [2], the “Standard extent” value was 116%.
On to “Sucrose fatty acid ester (C18:1, HLB = 15) [Product of present invention 22]”, for which the “Standard extent” value in the assay with “Momotaro” tomato [2] stood at 118%.
Regarding “Alkyl (C12-14) polyglycoside [Product of present invention 16]”, the “Standard extent” value in the assay on “Momotaro” tomato [2] was 117%.
With “POE (20) sorbitan monooleic acid ester [Product of present invention 1]”, in the assay on “Momotaro” tomato [1] (underground portion), the “Fresh weight, relative value … Test 5” value is 145; the “Fresh weight, relative value … Test 8” value turned out to be 160; the “Fresh weight, relative value … Test 6” value stood at 190; the “Fresh weight, relative value … Test 7” value came out at 145. For the same compound, the “Fresh weight, relative value … Comparison 2” value with “Momotaro” tomato [1] (underground portion) is reported as 104. Moreover, in the assay with “Momotaro” tomato [2], the “Standard extent” value was 113%.
Turning to “POE (6) sorbitan monooleic acid ester [Product of present invention 10]”, in the assay with “Momotaro” tomato [2], the “Standard extent” value was determined as 112%.
Take “Sucrose fatty acid ester (C16, HLB = 15) [Product of present invention 21]”: the “Standard extent” value with “Momotaro” tomato [2] is on record as 117%.
As to “Sucrose fatty acid ester (C18, HLB = 11) [Product of present invention 19]”, the “Standard extent” value in the assay on “Momotaro” tomato [2] is reported as 114%.
Regarding `O=C(O)[C@@H]1CCCN1` [Comparative product 2, Proline, reference compound], in the assay on “Momotaro” tomato [1] (leaf), the “Fresh weight, relative value … Test 5” value was found to be 102; the “Fresh weight, relative value … Test 8” value is on record as 101; the “Fresh weight, relative value … Test 6” value is given as 102; the “Fresh weight, relative value … Test 7” value is 102. For the same compound, the “Fresh weight, relative value … Comparison 2” value in the assay with “Momotaro” tomato [1] (leaf) is reported as 102. For the same compound, in the assay on “Momotaro” tomato [1] (underground portion), the “Fresh weight, relative value … Test 5” value is 103; the “Fresh weight, relative value … Test 8” value was found to be 100; the “Fresh weight, relative value … Test 6” value turned out to be 103; the “Fresh weight, relative value … Test 7” value amounted to 102. Also, the “Fresh weight, relative value … Comparison 2” value in the assay with “Momotaro” tomato [1] (underground portion) was found to be 103. Further, in the assay on “Momotaro” tomato [2], the “Standard extent” value is on record as 102%.
For “Sucrose fatty acid ester (C18, HLB = 9) [Product of present invention 18]”, in the assay with “Momotaro” tomato [2], the “Standard extent” value is 113%.

Values taken from patent US20110100079A1, “METHOD FOR IMPARTING STRESS TOLERANCE TO PLANT” (priority 2007, published 2011).
